The values that follow come from patent publication US20230348418A1, “ISOINDOLINONE COMPOUNDS” (Monte Rosa Therapeutics, Inc., priority 2021, published 2023).

Where two headings read alike, the source gives them in different places.

Experiment [1] concerns the target CRBN-DDB1 (Homo sapiens, UniProt Q96SW2). Briefly: HTRF binding of compounds to CRBN. As for the experimental part:
Compound activity was monitored in a Homogenous Time-Resolved Fluorescence (HTRF) assay using 1-[5-({2-[2-(2-{[2-(2,6-dioxopiperidin-3-yl)-1,3-dioxo-2,3-dihydro-1H-isoindol-4-yl]oxy}acetamido)ethoxy]ethyl}carbamoyl)pentyl]-3,3-dimethyl-2-[(1E,3E)-5-[(2E)-1,3,3-trimethyl-5-sulfo-2,3-dihydro-1H-indol-2-ylidene]penta-1,3-dien-1-yl]-3H-indol-1-ium-5-sulfonate as a fluorescent probe. […] Compounds were stored in dry, ambient temperatures at 10 mM. A 10-point, 1:3 dilution series was prepared from 10 mM stock concentrations in Echo-compatible LDV plates. 10 nL of each compound dilution series was dispensed into assays wells using an Echo 650 (Labcyte inc. USA). […] The assay was then allowed to incubate for 30 min at ambient temperature after transferring compound. […] Analysis and IC50 values were derived using KNIME analytics (KNIME Zurich) transformation and fitting within Collaborative Drug Discovery (Collaborative Drug Discovery USA). Ki was derived from the geometric mean of the IC50 values using the Cheng-Prustoff transformation.

Experiment [2] concerns the target GSPT1 (Homo sapiens, UniProt P15170+Q96SW2). Description: Immunofluorescence assay for GSPT1 degradation in CAL-51 cells (Example 10). It counts as cell-based. More on the design: host or cells: CAL-51. On the procedure: The representative compounds were tested in an immunofluorescence assay for their activity to degrade GSPT1. […] Compounds were stored at 10 mM DMSO stocks. […] Cells were subsequently rinsed with PBS and fixed in 10% Formalin solution (50 μl, Sigma HT5011)) for 20 mins at room temperature. […] Following three further PBS washes, 50 μL blocking buffer (1% BSA, Sigma A4503, in PBS) was added for 45 min for signal-to noise reduction. Primary antibody (human GSPT1, Sigma HPA052488) was diluted in blocking buffer (dil.1/300, 35 μL/well) and incubated with the cells overnight at 4° C. […] After three final PBS washes, samples were conserved in 100 μL PBS in the dark, until measurement. Image acquisition was performed on the Operetta High-Content Imager (Perkin-Elmer). […] For the determination of GSPT1 DC50 values, a custom algorithm implemented in the PerkinElmer image analysis software Harmony-Acapella® was developed. After user-defined setting of adjustment parameters, the analysis was run identically without human intervention for all image fields.
DAPI staining of the nuclei was used to determine the location of cells using standard nuclei detection modules. Segmentation artifacts were removed by threshold-based filters for area, roundness and intensity. The outline of the cells was determined analogously from the sum of the normalized, smoothed DAPI and Actin channel, starting from each nucleus. […] GSPT1 degradation (DC50) was calculated after normalization to controls and data import in CDD vault Database, using non-linear regression.

[3] abbreviates: read-out: HTRF Class (Cereblon binding, HTRF IC50).
Where [4] appears, read: 6 h, read-out: IF Class (GSPT1 degradation, DC50).
Setting [5] is: read-out: IF Class (GSPT1 degradation, DC50), 6 h.

CRBN-DDB1, sequence (Q96SW2 whole entry): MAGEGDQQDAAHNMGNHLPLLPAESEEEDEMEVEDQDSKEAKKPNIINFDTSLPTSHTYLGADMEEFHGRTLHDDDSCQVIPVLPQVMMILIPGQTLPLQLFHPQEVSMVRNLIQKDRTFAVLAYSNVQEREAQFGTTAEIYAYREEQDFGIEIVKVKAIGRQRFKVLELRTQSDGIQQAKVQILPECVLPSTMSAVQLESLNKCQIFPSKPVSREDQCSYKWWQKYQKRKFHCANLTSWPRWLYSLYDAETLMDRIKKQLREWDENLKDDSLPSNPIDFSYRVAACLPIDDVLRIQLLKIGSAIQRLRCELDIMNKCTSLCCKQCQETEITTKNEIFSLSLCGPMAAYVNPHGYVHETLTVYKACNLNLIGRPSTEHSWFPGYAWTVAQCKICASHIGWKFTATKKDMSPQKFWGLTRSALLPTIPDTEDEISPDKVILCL
CRBN-DDB1, sequence (Q16531 whole entry partner): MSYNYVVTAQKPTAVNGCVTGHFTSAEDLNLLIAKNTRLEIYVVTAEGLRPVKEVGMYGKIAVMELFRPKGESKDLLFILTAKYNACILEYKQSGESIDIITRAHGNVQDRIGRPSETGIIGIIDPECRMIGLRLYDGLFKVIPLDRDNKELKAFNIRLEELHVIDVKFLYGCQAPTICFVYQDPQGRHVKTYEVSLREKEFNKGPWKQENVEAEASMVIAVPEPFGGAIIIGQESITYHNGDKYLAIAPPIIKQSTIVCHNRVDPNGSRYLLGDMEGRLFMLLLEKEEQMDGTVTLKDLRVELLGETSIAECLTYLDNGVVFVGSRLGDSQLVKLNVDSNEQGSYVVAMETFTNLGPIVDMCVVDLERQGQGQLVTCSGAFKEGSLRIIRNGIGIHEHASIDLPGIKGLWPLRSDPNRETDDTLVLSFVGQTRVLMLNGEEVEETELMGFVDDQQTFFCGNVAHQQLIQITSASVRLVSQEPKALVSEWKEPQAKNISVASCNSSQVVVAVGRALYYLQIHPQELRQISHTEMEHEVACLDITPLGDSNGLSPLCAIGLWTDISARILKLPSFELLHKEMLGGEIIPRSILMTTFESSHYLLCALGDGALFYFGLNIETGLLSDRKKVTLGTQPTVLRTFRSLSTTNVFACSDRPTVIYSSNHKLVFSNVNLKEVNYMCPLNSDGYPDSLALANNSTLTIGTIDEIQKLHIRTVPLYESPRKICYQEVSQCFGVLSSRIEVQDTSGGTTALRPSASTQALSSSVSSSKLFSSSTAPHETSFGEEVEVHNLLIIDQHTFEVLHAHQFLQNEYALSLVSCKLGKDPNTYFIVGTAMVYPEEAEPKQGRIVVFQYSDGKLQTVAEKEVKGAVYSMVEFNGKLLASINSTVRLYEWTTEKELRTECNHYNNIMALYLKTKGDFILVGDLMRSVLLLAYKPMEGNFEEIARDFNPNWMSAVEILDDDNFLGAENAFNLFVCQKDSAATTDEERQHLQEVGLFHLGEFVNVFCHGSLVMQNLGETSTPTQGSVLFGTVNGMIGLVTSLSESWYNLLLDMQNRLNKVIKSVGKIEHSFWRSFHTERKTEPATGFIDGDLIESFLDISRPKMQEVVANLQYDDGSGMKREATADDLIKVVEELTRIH
GSPT1, sequence (P15170 whole entry): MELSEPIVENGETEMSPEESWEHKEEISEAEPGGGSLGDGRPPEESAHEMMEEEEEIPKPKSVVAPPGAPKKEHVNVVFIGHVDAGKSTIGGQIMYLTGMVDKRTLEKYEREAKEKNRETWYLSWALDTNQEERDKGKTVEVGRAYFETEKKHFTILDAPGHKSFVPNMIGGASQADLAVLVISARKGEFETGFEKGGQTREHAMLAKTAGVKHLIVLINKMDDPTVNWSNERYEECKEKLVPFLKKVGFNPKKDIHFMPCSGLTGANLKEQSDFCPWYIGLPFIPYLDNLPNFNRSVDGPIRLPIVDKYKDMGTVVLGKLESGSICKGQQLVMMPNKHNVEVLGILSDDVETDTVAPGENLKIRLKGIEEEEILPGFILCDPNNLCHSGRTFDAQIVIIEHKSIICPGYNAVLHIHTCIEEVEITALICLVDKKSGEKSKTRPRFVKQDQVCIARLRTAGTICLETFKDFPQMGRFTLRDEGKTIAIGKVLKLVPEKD
GSPT1, sequence (Q96SW2 whole entry): as the sequence (Q96SW2 whole entry) above
GSPT1, sequence (Q16531 2-1140 partner limits assumed): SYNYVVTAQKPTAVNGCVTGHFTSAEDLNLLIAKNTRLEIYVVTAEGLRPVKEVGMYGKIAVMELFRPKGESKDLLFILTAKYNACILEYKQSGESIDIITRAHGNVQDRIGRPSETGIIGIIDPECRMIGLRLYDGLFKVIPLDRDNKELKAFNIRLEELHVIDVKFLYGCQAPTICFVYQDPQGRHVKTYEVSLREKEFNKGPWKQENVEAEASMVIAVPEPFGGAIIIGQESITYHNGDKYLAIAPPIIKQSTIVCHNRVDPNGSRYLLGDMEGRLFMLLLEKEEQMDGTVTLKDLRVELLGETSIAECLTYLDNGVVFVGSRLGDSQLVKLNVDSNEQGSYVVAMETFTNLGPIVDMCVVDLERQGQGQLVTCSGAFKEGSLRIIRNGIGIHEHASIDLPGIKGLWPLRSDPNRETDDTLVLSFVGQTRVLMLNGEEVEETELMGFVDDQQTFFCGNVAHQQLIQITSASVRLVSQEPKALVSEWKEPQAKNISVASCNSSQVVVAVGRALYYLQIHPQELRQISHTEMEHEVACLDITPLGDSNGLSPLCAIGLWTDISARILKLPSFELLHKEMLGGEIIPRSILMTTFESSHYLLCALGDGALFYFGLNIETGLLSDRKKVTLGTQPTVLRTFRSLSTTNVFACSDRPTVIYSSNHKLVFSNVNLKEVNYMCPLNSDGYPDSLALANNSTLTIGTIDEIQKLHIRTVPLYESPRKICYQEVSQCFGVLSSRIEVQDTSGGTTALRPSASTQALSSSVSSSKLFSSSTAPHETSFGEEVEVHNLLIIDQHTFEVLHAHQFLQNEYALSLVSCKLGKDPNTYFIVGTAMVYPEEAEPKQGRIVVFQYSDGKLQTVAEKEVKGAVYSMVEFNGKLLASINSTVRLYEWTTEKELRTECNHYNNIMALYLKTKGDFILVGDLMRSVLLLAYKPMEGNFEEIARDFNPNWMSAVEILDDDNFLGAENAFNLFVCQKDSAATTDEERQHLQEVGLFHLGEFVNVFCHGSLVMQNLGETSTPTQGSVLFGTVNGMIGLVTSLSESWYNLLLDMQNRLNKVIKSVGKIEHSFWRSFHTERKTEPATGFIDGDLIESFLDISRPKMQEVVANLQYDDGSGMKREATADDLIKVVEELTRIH

As for `O=C1CCC(N2Cc3ccc(COC(=O)N[C@H]4C[C@@H](c5ccccc5)C4)cc3C2=O)C(=O)N1` (stereo partly drawn) [Compound 158, (2-(2,6-dioxopiperidin-3-yl)-3-oxoisoindolin-5-yl)methyl ((1s,3s)-3-phenylcyclobutyl)carbamate], the IC50 in experiment [1] (setting [3]) was below 100 nM. For the same molecule, the DC50 in experiment [2] (setting [4]) is above 300 nM.

Regarding `O=C1CCC(N2Cc3ccc(COC(=O)N[C@H]4C[C@H](c5ccccc5)C4)cc3C2=O)C(=O)N1` (stereo partly drawn) [Compound 159, (2-(2,6-dioxopiperidin-3-yl)-3-oxoisoindolin-5-yl)methyl((1r,3r)-3-phenylcyclobutyl)carbamate], the IC50 in experiment [1] (setting [3]) lay within 100 to 1000 nM. Further, in experiment [2] (setting [4]), the DC50 was in the range of 30 to 300 nM.

For the molecule `Cc1cccc(NC(=O)OCc2ccc3c(c2)C(=O)N(C2CCC(=O)NC2=O)C3)c1` (stereo not drawn) [Compound 160, (2-(2,6-dioxopiperidin-3-yl)-3-oxoisoindolin-5-yl)methyl m-tolylcarbamate], in experiment [1] (setting [3]), the IC50 fell in the range of 100 to 1000 nM. Besides, the DC50 in experiment [2] (setting [4]) was above 300 nM.

For the molecule `Cc1cc(C)nc(NC(=O)OCc2ccc3c(c2)C(=O)N(C2CCC(=O)NC2=O)C3)c1` (stereo not drawn) [Compound 161, (2-(2,6-dioxopiperidin-3-yl)-3-oxoisoindolin-5-yl)methyl (4,6-dimethylpyridin-2-yl)carbamate], the IC50 in experiment [1] (setting [3]) was 100 to 1000 nM. The DC50 in experiment [2] (setting [4]) was above 300 nM.

In the case of `Cc1ccc(NC(=O)OCc2ccc3c(c2)C(=O)N(C2CCC(=O)NC2=O)C3)cc1` (stereo not drawn) [Compound 162, (2-(2,6-dioxopiperidin-3-yl)-3-oxoisoindolin-5-yl)methyl p-tolylcarbamate], the IC50 in experiment [1] (setting [3]) fell in the range of 100 to 1000 nM. In addition, the DC50 in experiment [2] (setting [4]) was above 300 nM.

On to `Cc1cc(NC(=O)OCc2ccc3c(c2)C(=O)N(C2CCC(=O)NC2=O)C3)ccc1Cl` (stereo not drawn) [Compound 165, (2-(2,6-dioxopiperidin-3-yl)-3-oxoisoindolin-5-yl)methyl (4-chloro-3-methylphenyl)carbamate], for which the IC50 in experiment [1] (setting [3]) fell in the range of 100 to 1000 nM. For the same molecule, in experiment [2] (setting [4]), the DC50 was below 30 nM.

As for `O=C1CCC(N2Cc3ccc(COC(=O)NC4(c5ccccc5)CC4)cc3C2=O)C(=O)N1` (stereo not drawn) [Compound 171, (2-(2,6-dioxopiperidin-3-yl)-3-oxoisoindolin-5-yl)methyl (1-phenylcyclopropyl)carbamate], the IC50 in experiment [1] (setting [3]) was in the range of 100 to 1000 nM. In experiment [2] (setting [4]), the DC50 is above 300 nM.

For the molecule `CC(C)(C)N1CC(NC(=O)OCc2ccc3c(c2)C(=O)N(C2CCC(=O)NC2=O)C3)C1` (stereo not drawn) [Compound 172, (2-(2,6-dioxopiperidin-3-yl)-3-oxoisoindolin-5-yl)methyl (1-(tert-butyl)azetidin-3-yl)carbamate], the IC50 in experiment [1] (setting [3]) was 100 to 1000 nM. Moreover, in experiment [2] (setting [4]), the DC50 is above 300 nM.

With `O=C1CCC(N2Cc3ccc(COC(=O)Nc4c(F)ccc(Cl)c4F)cc3C2=O)C(=O)N1` (stereo not drawn) [Compound 178, (2-(2,6-dioxopiperidin-3-yl)-3-oxoisoindolin-5-yl)methyl (3-chloro-2,6-difluorophenyl)carbamate], the half-maximal inhibitory concentration (IC50) in experiment [1] (setting [3]) lay in the range of 100 to 1000 nM. In addition, the DC50 in experiment [2] (setting [4]) was above 300 nM.

`Cc1c(Cl)ccc(NC(=O)OCc2ccc3c(c2)C(=O)N(C2CCC(=O)NC2=O)C3)c1F` (stereo not drawn) [Compound 180] returned an IC50 in experiment [1] of 100 to 1000 nM. The DC50 in experiment [2] (setting [5]) was 30 to 300 nM.

`O=C1CCC(N2Cc3ccc(COC(=O)Nc4ccc(C5CCC5)cn4)cc3C2=O)C(=O)N1` (stereo not drawn) [Compound 181, (2-(2,6-dioxopiperidin-3-yl)-3-oxoisoindolin-5-yl)methyl (5-cyclobutylpyridin-2-yl)carbamate]: in experiment [1] (setting [3]), the IC50 is 100 to 1000 nM. For the same molecule, the DC50 in experiment [2] (setting [4]) lay in the range of 30 to 300 nM.

For the molecule `O=C1CCC(N2Cc3ccc(COC(=O)Nc4cc(F)cc5c4OCC5)cc3C2=O)C(=O)N1` (stereo not drawn) [Compound 187, (2-(2,6-dioxopiperidin-3-yl)-3-oxoisoindolin-5-yl)methyl(5-fluoro-2,3-dihydrobenzofuran-7-yl) carbamate], the IC50 in experiment [1] (setting [3]) is below 100 nM. Also, the 50% degradation concentration (DC50) in experiment [2] (setting [4]) is above 300 nM.

In turn, `CC1(c2ccc(NC(=O)OCc3ccc4c(c3)C(=O)N(C3CCC(=O)NC3=O)C4)nc2)CC1` (stereo not drawn) [Compound 188] showed an IC50 in experiment [1] of 100 to 1000 nM. Also, the DC50 in experiment [2] (setting [5]) is below 30 nM.

Turning to `CC(C)(C)OC(=O)NC12CC(NC(=O)OCc3ccc4c(c3)C(=O)N(C3CCC(=O)NC3=O)C4)(C1)C2` (stereo not drawn) [Compound 196, tert-butyl((2-(2,6-dioxopiperidin-3-yl)-3-oxoisoindolin-5-yl)methyl)bicyclo[1.1.1]pentane-1,3-diyldicarbamate], in experiment [1] (setting [3]), the IC50 is below 100 nM. The DC50 in experiment [2] (setting [4]) is above 300 nM.

Take `CC(C)c1ccc(F)c(NC(=O)OCc2ccc3c(c2)C(=O)N(C2CCC(=O)NC2=O)C3)c1` (stereo not drawn) [Compound 205, (2-(2,6-dioxopiperidin-3-yl)-3-oxoisoindolin-5-yl)methyl (2-fluoro-5-isopropylphenyl)carbamate]: the IC50 in experiment [1] (setting [3]) is 100 to 1000 nM. In addition, the 50% degradation concentration (DC50) in experiment [2] (setting [4]) fell in the range of 30 to 300 nM.

In the case of `CCc1ccc(F)c(NC(=O)OCc2ccc3c(c2)C(=O)N(C2CCC(=O)NC2=O)C3)c1` (stereo not drawn) [Compound 210, (2-(2,6-dioxopiperidin-3-yl)-3-oxoisoindolin-5-yl)methyl (5-ethyl-2-fluorophenyl)carbamate], the IC50 in experiment [1] (setting [3]) was below 100 nM. Further, the DC50 in experiment [2] (setting [4]) is above 300 nM.

For the molecule `O=C1CCC(N2Cc3ccc(COC(=O)Nc4cc(OC(F)F)c(F)cc4F)cc3C2=O)C(=O)N1` (stereo not drawn) [Compound 218, (2-(2,6-dioxopiperidin-3-yl)-3-oxoisoindolin-5-yl)methyl(5-(difluoromethoxy)-2,4-difluorophenyl) carbamate], the IC50 in experiment [1] (setting [3]) is below 100 nM. Moreover, the DC50 in experiment [2] (setting [4]) is above 300 nM.

Take `CC(C)(C)OC(=O)C12CC(NC(=O)OCc3ccc4c(c3)C(=O)N(C3CCC(=O)NC3=O)C4)(C1)C2` (stereo not drawn) [Compound 224, tert-butyl 3-((((2-(2,6-dioxopiperidin-3-yl)-3-oxoisoindolin-5-yl)methoxy)carbonyl)amino)bicyclo[1.1.1]pentane-1-carboxylate]: the IC50 in experiment [1] (setting [3]) fell in the range of 100 to 1000 nM. Also, the DC50 in experiment [2] (setting [4]) was 30 to 300 nM.
